The record followed here is PubChem BioAssay (NCI).

SMILES strings stand for the structures. Several values for one entry are separate records, joined by “and”; a condition that tells them apart may be missing. Equal entries are not always repeated.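 Results reflect a 48-hour exposure of cells in 96-well plates to compound at five concentrations. TGI: total growth inhibition.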

The first assay relates to SK-MEL-5 melanoma. Put plainly: inhibition of tumour cell growth, NCI panel, 48 h.
`CC(C)=CCC/C(C)=C/CC/C(C)=C/CC/C(C)=C/C=C/C=C(\C)CC/C=C(\C)CC/C=C(\C)CCC=C(C)C` showed a TGI greater than 79.9 µM.
On the same count and under the same terms, under `CCOC(=O)P(=O)(O)c1ccc(N(C)Cc2ccccc2)cc1` stands greater than 100 µM; under `C=C(C)C1=CCC[C@]2(C1)N=C(OC)[C@@H](C(C)C)N=C2OC`, greater than 100 µM; under `Cc1cc2ccccc2n2c1nc1ccccc12`, greater than 100 µM.
In turn, `[N-]=[N+]=Nc1ccccc1C(=O)N1C(=O)c2ccccc2C(=O)N(C(=O)c2ccccc2N=[N+]=[N-])c2ccccc21` registered a TGI greater than 100 µM.
With `CCCCCCCCCCCCCCCCCCNC(=O)C(N)Cc1ccc(OCc2ccccc2)cn1` (configuration not stated), the TGI came to 31.9 µM.
Same read-out and setting: under `Cc1ccc2c(c1)[nH]c(=S)n2/C=C1\C(=O)Oc2ccccc2C1=O` stands greater than 100 µM.
On the same count and under the same terms, as for `CC(C)Cn1cnc2c(NCC(C)O)nc3ccccc3c21` (configuration not stated), the figure is greater than 100 µM.
As for `OC1(c2cccs2)c2cccc(Cl)c2C(O)(c2cccs2)c2c(Cl)cccc21` (configuration not stated), the TGI was greater than 100 µM.
With `C=CCOc1cccc(C2(O)c3ccccc3C3=NCCCN32)c1` (configuration not stated), the TGI turned out to be 41.9 µM.
Compound `O=C1CCCCC/C1=C\c1cccc(Cl)c1` had a TGI greater than 100 µM.
The same measure, in the same setting: under `CCc1c2c([nH]c(=S)c1C#N)CCC2` stands greater than 100 µM; under `C=CCN1C(=O)/C(=C/c2ccc(OC)cc2)N=C1SC/C=C/C`, 39.4 µM.
Take `Cc1nc2ccccc2n1COC(Cn1ccnc1)c1ccc(Cl)cc1Cl` (configuration not stated): the TGI was determined as 53.5 µM.
In turn, `Cn1c2ccccc2c2c(-c3ccccc3)cc3c(c21)C(=O)C=CC3=O` showed a TGI greater than 9.24 µM.
With `Nc1ncnn2c(C3OC(CO)C(O)C3O)ccc12` (configuration not stated), the TGI was found to be 0.527 µM.
Compound `COC(=O)[C@@H]1CN(C(C)=O)C(=O)N1` gave a TGI greater than 100 µM.
As to `COc1ccc(-c2c(C#N)c(N)n(C3OCC(OC(C)=O)C(OC(C)=O)C3OC(C)=O)c(=S)c2C#N)cc1` (configuration not stated), the TGI is greater than 100 µM.

A further assay concerns CCRF-CEM leukemia. In words: inhibition of tumour cell growth, NCI panel, 48 h.
With `CC(C)=CCC/C(C)=C/CC/C(C)=C/CC/C(C)=C/C=C/C=C(\C)CC/C=C(\C)CC/C=C(\C)CCC=C(C)C`, the TGI turned out to be 59.8 µM.
Still for that read-out and setting: under `CCOC(=O)P(=O)(O)c1ccc(N(C)Cc2ccccc2)cc1` stands greater than 100 µM; under `C=C(C)C1=CCC[C@]2(C1)N=C(OC)[C@@H](C(C)C)N=C2OC`, greater than 100 µM.
The same measure, in the same setting: as for `Cc1cc2ccccc2n2c1nc1ccccc12`, the figure is greater than 100 µM; as for `[N-]=[N+]=Nc1ccccc1C(=O)N1C(=O)c2ccccc2C(=O)N(C(=O)c2ccccc2N=[N+]=[N-])c2ccccc21`, 84.6 µM; as for `CCCCCCCCCCCCCCCCCCNC(=O)C(N)Cc1ccc(OCc2ccccc2)cn1` (configuration not stated), 78.9 µM.
Still for that read-out and setting: as for `Cc1ccc2c(c1)[nH]c(=S)n2/C=C1\C(=O)Oc2ccccc2C1=O`, the figure is greater than 100 µM.
Compound `CC(C)Cn1cnc2c(NCC(C)O)nc3ccccc3c21` (configuration not stated) registered a TGI greater than 100 µM.
Same read-out and setting: as for `OC1(c2cccs2)c2cccc(Cl)c2C(O)(c2cccs2)c2c(Cl)cccc21` (configuration not stated), the figure is greater than 100 µM.
The same measure, in the same setting: under `C=CCOc1cccc(C2(O)c3ccccc3C3=NCCCN32)c1` (configuration not stated) stands 40.9 µM.
`O=C1CCCCC/C1=C\c1cccc(Cl)c1` returned a TGI of 30.4 µM.
Same read-out and setting: as for `CCc1c2c([nH]c(=S)c1C#N)CCC2`, the figure is greater than 100 µM; as for `C=CCN1C(=O)/C(=C/c2ccc(OC)cc2)N=C1SC/C=C/C`, greater than 100 µM.
Same read-out and setting: under `Cc1nc2ccccc2n1COC(Cn1ccnc1)c1ccc(Cl)cc1Cl` (configuration not stated) stands greater than 100 µM.
Still for that read-out and setting: as for `Cn1c2ccccc2c2c(-c3ccccc3)cc3c(c21)C(=O)C=CC3=O`, the figure is 0.538 µM.
For `Nc1ncnn2c(C3OC(CO)C(O)C3O)ccc12` (configuration not stated), the TGI was found to be 0.627 µM.
The same measure, in the same setting: as for `COC(=O)[C@@H]1CN(C(C)=O)C(=O)N1`, the figure is greater than 100 µM; as for `COc1ccc(-c2c(C#N)c(N)n(C3OCC(OC(C)=O)C(OC(C)=O)C3OC(C)=O)c(=S)c2C#N)cc1` (configuration not stated), 77.8 µM and 98.3 µM.

The next assay concerns SF-295 CNS. In words: inhibition of tumour cell growth, NCI panel, 48 h.
Compound `CC(C)=CCC/C(C)=C/CC/C(C)=C/CC/C(C)=C/C=C/C=C(\C)CC/C=C(\C)CC/C=C(\C)CCC=C(C)C` had a TGI greater than 100 µM.
`CCOC(=O)P(=O)(O)c1ccc(N(C)Cc2ccccc2)cc1`: the TGI is greater than 100 µM.
Still for that read-out and setting: as for `C=C(C)C1=CCC[C@]2(C1)N=C(OC)[C@@H](C(C)C)N=C2OC`, the figure is greater than 100 µM; as for `Cc1cc2ccccc2n2c1nc1ccccc12`, greater than 100 µM; as for `[N-]=[N+]=Nc1ccccc1C(=O)N1C(=O)c2ccccc2C(=O)N(C(=O)c2ccccc2N=[N+]=[N-])c2ccccc21`, greater than 100 µM.
Same read-out and setting: as for `CCCCCCCCCCCCCCCCCCNC(=O)C(N)Cc1ccc(OCc2ccccc2)cn1` (configuration not stated), the figure is 59.1 µM; as for `Cc1ccc2c(c1)[nH]c(=S)n2/C=C1\C(=O)Oc2ccccc2C1=O`, greater than 100 µM; as for `CC(C)Cn1cnc2c(NCC(C)O)nc3ccccc3c21` (configuration not stated), greater than 100 µM.
On the same count and under the same terms, under `OC1(c2cccs2)c2cccc(Cl)c2C(O)(c2cccs2)c2c(Cl)cccc21` (configuration not stated) stands greater than 100 µM; under `C=CCOc1cccc(C2(O)c3ccccc3C3=NCCCN32)c1` (configuration not stated), 7.83 µM; under `O=C1CCCCC/C1=C\c1cccc(Cl)c1`, 50.2 µM.
`CCc1c2c([nH]c(=S)c1C#N)CCC2` displayed a TGI greater than 100 µM.
On the same count and under the same terms, under `C=CCN1C(=O)/C(=C/c2ccc(OC)cc2)N=C1SC/C=C/C` stands greater than 100 µM; under `Cc1nc2ccccc2n1COC(Cn1ccnc1)c1ccc(Cl)cc1Cl` (configuration not stated), greater than 100 µM.
Same read-out and setting: under `Cn1c2ccccc2c2c(-c3ccccc3)cc3c(c21)C(=O)C=CC3=O` stands greater than 10 µM.
With `Nc1ncnn2c(C3OC(CO)C(O)C3O)ccc12` (configuration not stated), the TGI worked out at 3.01 µM.
Still for that read-out and setting: as for `COC(=O)[C@@H]1CN(C(C)=O)C(=O)N1`, the figure is greater than 100 µM; as for `COc1ccc(-c2c(C#N)c(N)n(C3OCC(OC(C)=O)C(OC(C)=O)C3OC(C)=O)c(=S)c2C#N)cc1` (configuration not stated), greater than 100 µM.

Another assay deals with HT29 colon. In words: inhibition of tumour cell growth, NCI panel, 48 h.
`CC(C)=CCC/C(C)=C/CC/C(C)=C/CC/C(C)=C/C=C/C=C(\C)CC/C=C(\C)CC/C=C(\C)CCC=C(C)C` displayed a TGI greater than 100 µM.
Same read-out and setting: under `CCOC(=O)P(=O)(O)c1ccc(N(C)Cc2ccccc2)cc1` stands greater than 100 µM; under `C=C(C)C1=CCC[C@]2(C1)N=C(OC)[C@@H](C(C)C)N=C2OC`, greater than 100 µM; under `Cc1cc2ccccc2n2c1nc1ccccc12`, greater than 100 µM.
Take `[N-]=[N+]=Nc1ccccc1C(=O)N1C(=O)c2ccccc2C(=O)N(C(=O)c2ccccc2N=[N+]=[N-])c2ccccc21`: the TGI was greater than 100 µM.
Still for that read-out and setting: under `CCCCCCCCCCCCCCCCCCNC(=O)C(N)Cc1ccc(OCc2ccccc2)cn1` (configuration not stated) stands 31.2 µM; under `Cc1ccc2c(c1)[nH]c(=S)n2/C=C1\C(=O)Oc2ccccc2C1=O`, greater than 100 µM.
Same read-out and setting: under `CC(C)Cn1cnc2c(NCC(C)O)nc3ccccc3c21` (configuration not stated) stands greater than 100 µM; under `OC1(c2cccs2)c2cccc(Cl)c2C(O)(c2cccs2)c2c(Cl)cccc21` (configuration not stated), greater than 100 µM.
Same read-out and setting: under `C=CCOc1cccc(C2(O)c3ccccc3C3=NCCCN32)c1` (configuration not stated) stands 27.2 µM.
In turn, `O=C1CCCCC/C1=C\c1cccc(Cl)c1` had a TGI greater than 100 µM.
The compound `CCc1c2c([nH]c(=S)c1C#N)CCC2` had a TGI greater than 100 µM.
`C=CCN1C(=O)/C(=C/c2ccc(OC)cc2)N=C1SC/C=C/C` had a TGI greater than 100 µM.
